The values that follow come from the supplement of paper PMC6045584.

Compound in one experiment: CC[C@@H](C(=O)[C@@H](C)[C@@H](O)[C@H](C)[C@@H]1O[C@@H]([C@@H](CC)C(=O)O)CC[C@@H]1C)[C@H]1O[C@]2(C=C[C@@H](O)[C@]3(CC[C@@](C)([C@H]4CC[C@](O)(CC)[C@H](C)O4)O3)O2)[C@H](C)C[C@@H]1C [SALINOMYCIN]
As to the kind of experiment: surviving fraction relative to DMSO-only wells; higher = less growth inhibition. Conditions: exposure time: 5 days. The procedure, abridged:
(§1)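 After seeding at 250–500 cells per well in 384-well plates and a 24-hour wait, log-phase tumour cell lines were exposed without interruption for five days to inhibitors at 0.5, 1, 5, 10, 50, 100, 500 and 1000 nM. CellTiter-Glo luminescence was recorded after 10 minutes at room temperature. Viability is reported as surviving fraction, the luminescence normalised to the median of DMSO-only wells.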

Compound in the next experiment: CS(=O)(=O)CCNCc1ccc(-c2ccc3ncnc(Nc4ccc(OCc5cccc(F)c5)c(Cl)c4)c3c2)o1 [LAPATINIB]
The experiment is described as above. Conditions: exposure time: 5 days. The procedure, abridged:
as §1

± gives the standard deviation of the averaged measurements.

Turning to G292 BONE, the surviving fraction in the experiment with SALINOMYCIN (0.5 nM) came to 0.971 ± 0.016; in the experiment with SALINOMYCIN (1 nM) it was 0.967 ± 0.055; with SALINOMYCIN (5 nM), 1 ± 0.086; with SALINOMYCIN (10 nM) it was 0.966 ± 0.046; in the experiment with SALINOMYCIN (50 nM) it was 0.932 ± 0.017; with SALINOMYCIN (100 nM), 0.828 ± 0.013. Moreover, the surviving fraction in the experiment with SALINOMYCIN (500 nM) was 0.204 ± 0.011; with SALINOMYCIN (1000 nM) it was 0.146 ± 0.0081; with LAPATINIB (0.5 nM) it was 0.973 ± 0.011; in the experiment with LAPATINIB (1 nM), 1.02 ± 0.052; with LAPATINIB (5 nM) it was 1.03 ± 0.022; with LAPATINIB (10 nM) it was 1.03 ± 0.026. Besides, the surviving fraction worked out at 1.02 ± 0.029 with LAPATINIB (50 nM), 0.999 ± 0.02 with LAPATINIB (100 nM), 0.967 ± 0.077 with LAPATINIB (500 nM) and 0.964 ± 0.015 with LAPATINIB (1000 nM).

Consider HCC38 BREAST, for which the surviving fraction in the experiment with SALINOMYCIN (0.5 nM) came out at 1.26 ± 0.26; in the experiment with SALINOMYCIN (1 nM), 1.14 ± 0.15; in the experiment with SALINOMYCIN (5 nM) it was 1.3 ± 0.19; with SALINOMYCIN (10 nM) it was 1.26 ± 0.081; in the experiment with SALINOMYCIN (50 nM), 1.05 ± 0.14; in the experiment with SALINOMYCIN (100 nM) it was 0.862 ± 0.2. Besides, the surviving fraction is 0.415 ± 0.03 with SALINOMYCIN (500 nM); 0.317 ± 0.052 in the experiment with SALINOMYCIN (1000 nM); 1.03 ± 0.17 in the experiment with LAPATINIB (0.5 nM); 0.933 ± 0.042 with LAPATINIB (1 nM); 1 ± 0.35 with LAPATINIB (5 nM); 1.09 ± 0.14 with LAPATINIB (10 nM). The surviving fraction is 0.873 ± 0.13 in the experiment with LAPATINIB (50 nM), 0.776 ± 0.097 with LAPATINIB (100 nM), 0.757 ± 0.13 with LAPATINIB (500 nM) and 0.794 ± 0.19 with LAPATINIB (1000 nM).

Take HCC70 BREAST: the surviving fraction with SALINOMYCIN (0.5 nM) amounted to 0.915 ± 0.055; with SALINOMYCIN (1 nM), 1.011 ± 0.0081; with SALINOMYCIN (5 nM), 1.02 ± 0.035; with SALINOMYCIN (10 nM), 0.973 ± 0.022; in the experiment with SALINOMYCIN (50 nM) it was 0.948 ± 0.11; in the experiment with SALINOMYCIN (100 nM), 0.671 ± 0.061. For the same test system, the surviving fraction turned out to be 0.251 ± 0.011 in the experiment with SALINOMYCIN (500 nM); 0.147 ± 0.015 in the experiment with SALINOMYCIN (1000 nM); 1.05 ± 0.075 in the experiment with LAPATINIB (0.5 nM); 1.1 ± 0.076 with LAPATINIB (1 nM); 1.16 ± 0.069 with LAPATINIB (5 nM); 1.15 ± 0.036 in the experiment with LAPATINIB (10 nM). Besides, the surviving fraction with LAPATINIB (50 nM) amounted to 1.05 ± 0.07; in the experiment with LAPATINIB (100 nM) it was 1.13 ± 0.044; in the experiment with LAPATINIB (500 nM), 0.99 ± 0.047; with LAPATINIB (1000 nM) it was 0.941 ± 0.058.

With HMLE3 BREAST, the surviving fraction was found to be 0.898 ± 0.036 with SALINOMYCIN (0.5 nM); 0.894 ± 0.1 with SALINOMYCIN (1 nM); 1.02 ± 0.028 with SALINOMYCIN (5 nM); 0.926 ± 0.09 with SALINOMYCIN (10 nM); 1.19 ± 0.032 in the experiment with SALINOMYCIN (50 nM); 0.988 ± 0.028 in the experiment with SALINOMYCIN (100 nM). For the same test system, the surviving fraction with SALINOMYCIN (500 nM) came to 0.056 ± 0.0095; with SALINOMYCIN (1000 nM), 0.0347 ± 0.0042; with LAPATINIB (0.5 nM) it was 1.04 ± 0.1; in the experiment with LAPATINIB (1 nM), 1.09 ± 0.074; with LAPATINIB (5 nM), 1.05 ± 0.065; with LAPATINIB (10 nM), 1.07 ± 0.098. Further, the surviving fraction was determined as 1.04 ± 0.041 with LAPATINIB (50 nM), 1.14 ± 0.13 with LAPATINIB (100 nM), 0.992 ± 0.084 with LAPATINIB (500 nM) and 0.966 ± 0.046 in the experiment with LAPATINIB (1000 nM).

On to HMT3552 BREAST, for which the surviving fraction came out at 1.07 with SALINOMYCIN (0.5 nM); 1 in the experiment with SALINOMYCIN (1 nM); 1.07 in the experiment with SALINOMYCIN (5 nM); 1.11 with SALINOMYCIN (10 nM); 1.13 with SALINOMYCIN (50 nM); 1.05 with SALINOMYCIN (100 nM). Further, the surviving fraction with SALINOMYCIN (500 nM) amounted to 0.801; with SALINOMYCIN (1000 nM) it was 0.728; with LAPATINIB (0.5 nM), 1.03 ± 0.033; with LAPATINIB (1 nM), 1.02 ± 0.073; with LAPATINIB (5 nM) it was 1.06 ± 0.026; with LAPATINIB (10 nM), 1.04 ± 0.075. Also, the surviving fraction was 1.02 ± 0.014 with LAPATINIB (50 nM), 1.05 ± 0.083 with LAPATINIB (100 nM), 0.861 ± 0.12 with LAPATINIB (500 nM) and 0.944 ± 0.074 with LAPATINIB (1000 nM).

Consider HS57T BREAST, for which the surviving fraction with SALINOMYCIN (0.5 nM) was determined as 0.986 ± 0.077; in the experiment with SALINOMYCIN (1 nM), 0.949 ± 0.062; in the experiment with SALINOMYCIN (5 nM), 1.07 ± 0.057; with SALINOMYCIN (10 nM) it was 1.03 ± 0.042; with SALINOMYCIN (50 nM), 1.03 ± 0.013; in the experiment with SALINOMYCIN (100 nM) it was 0.813 ± 0.036. Moreover, the surviving fraction worked out at 0.28 ± 0.02 with SALINOMYCIN (500 nM); 0.158 ± 0.011 in the experiment with SALINOMYCIN (1000 nM); 0.975 ± 0.054 with LAPATINIB (0.5 nM); 1 ± 0.022 with LAPATINIB (1 nM); 1.07 ± 0.074 with LAPATINIB (5 nM); 1.03 ± 0.044 with LAPATINIB (50 nM). Moreover, the surviving fraction came to 1.09 ± 0.044 with LAPATINIB (100 nM), 0.97 ± 0.04 with LAPATINIB (500 nM) and 0.933 ± 0.037 with LAPATINIB (1000 nM).

Regarding HS578T BREAST, the surviving fraction was 0.874 ± 0.12 in the experiment with SALINOMYCIN (0.5 nM); 0.894 ± 0.036 with SALINOMYCIN (1 nM); 0.993 ± 0.16 with SALINOMYCIN (5 nM); 1.01 ± 0.11 in the experiment with SALINOMYCIN (10 nM); 1.05 ± 0.076 with SALINOMYCIN (50 nM); 0.826 ± 0.096 with SALINOMYCIN (100 nM). Further, the surviving fraction with SALINOMYCIN (500 nM) worked out at 0.589 ± 0.033; with SALINOMYCIN (1000 nM), 0.526 ± 0.041; with LAPATINIB (0.5 nM) it was 1.19 ± 0.11; with LAPATINIB (1 nM), 1.03 ± 0.045; in the experiment with LAPATINIB (5 nM) it was 1.11 ± 0.15; in the experiment with LAPATINIB (10 nM) it was 0.871 ± 0.14. The surviving fraction in the experiment with LAPATINIB (50 nM) came to 1.04 ± 0.048; in the experiment with LAPATINIB (100 nM), 1.08 ± 0.013; in the experiment with LAPATINIB (500 nM), 0.941 ± 0.052; in the experiment with LAPATINIB (1000 nM), 1.05 ± 0.15.
